From US8722868B2, “Glycosyltransferase, novel glycosyltransferase gene, and novel sugar donor compound” (National University Corporation Tokyo University of …, priority 2009, dated 2014)

Legend:
[1] = molecular target: T1, glycosyltransferase in crude enzyme extracted from petals of a delphinium (variety: "marine blue") (Delphinium grandiflorum, UniProt E3W9M3); assay: Detection of glycosyl transfer reaction with delphinium petal crude enzyme (HPLC); type: biochemical, delphinium (Delphinium grandiflorum L.); settings: cyanidin 3-O-β-glucoside 200 μM, sugar donor 1 mM, pH 5.6, 30° C., 15 minutes
T1 construct: Glycosyltransferase activity was examined using a crude enzyme extracted from; from tissue
T1 sequence (E3W9M3 26-505): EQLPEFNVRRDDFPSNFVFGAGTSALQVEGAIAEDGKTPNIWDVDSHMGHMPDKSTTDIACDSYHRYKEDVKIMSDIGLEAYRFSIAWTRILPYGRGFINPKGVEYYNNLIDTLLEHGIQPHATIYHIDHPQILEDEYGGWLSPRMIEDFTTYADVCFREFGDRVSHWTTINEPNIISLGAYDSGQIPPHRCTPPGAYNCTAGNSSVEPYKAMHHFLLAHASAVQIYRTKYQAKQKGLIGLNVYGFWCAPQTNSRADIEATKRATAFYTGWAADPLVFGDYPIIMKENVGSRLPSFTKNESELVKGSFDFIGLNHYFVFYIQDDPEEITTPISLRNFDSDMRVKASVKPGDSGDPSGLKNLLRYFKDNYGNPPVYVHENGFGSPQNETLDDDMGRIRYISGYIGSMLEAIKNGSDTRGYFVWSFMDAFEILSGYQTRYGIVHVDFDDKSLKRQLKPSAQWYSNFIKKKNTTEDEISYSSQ
Protocol: Glycosyltransferase activity was examined using a crude enzyme extracted from pink petals of a carnation (variety: “Beam Cherry”) or petals of a delphinium (variety: “marine blue”) in the manner described in Example 1. Cyanidin 3-O-β-glucoside (final concentration: 200 μM) and 1-O-β-p-hydroxybenzoyl glucose (final concentration: 1 mM) were used as a receptor and a sugar donor, respectively. The pH was adjusted to 5.6 with a citric acid buffer, followed by a glycosyltransferase reaction at 30° C. for 15 minutes. The reaction was terminated with phosphoric acid (final concentration: 1%), followed by centrifugation for the removal of insoluble matter. Then, the supernatant was analyzed by HPLC. HPLC analysis was carried out using a 1.5% phosphoric acid aqueous solution and methanol as eluents and a Wakopak Handy ODS column (4.6×250 mm, Wako Pure Chemical Industries, Ltd.). Separation was carried out at a flow rate of 1 ml/min with a linear gradient of 20% to 55% methanol (20 minutes). A reaction product was confirmed using a photodiode array detector.

[2] = molecular target: T2, crude enzyme obtained from pink petals of a carnation (variety: "Beam Cherry") (glycosyltransferase) (Dianthus caryophyllus, UniProt E3W9M2); assay: Relative activity of crude carnation petal enzyme on each sugar donor (glycosyl transfer to cyanidin 3-glucoside, HPLC); type: biochemical; settings: crude enzyme 61 μg, cyanidin β-glucoside 200 μM, sugar donor 500 μM, citric acid buffer pH 5.6, 30° C., 15 minutes, HPLC area of cyanidin 3,5-O-β diglucoside
T2 construct: Thus, a crude enzyme liquid was obtained; from tissue; host or cells: pink petals of carnation, variety Beam Cherry (ammonium sulfate precipitate, desalted)
T2 sequence (E3W9M2 31-502): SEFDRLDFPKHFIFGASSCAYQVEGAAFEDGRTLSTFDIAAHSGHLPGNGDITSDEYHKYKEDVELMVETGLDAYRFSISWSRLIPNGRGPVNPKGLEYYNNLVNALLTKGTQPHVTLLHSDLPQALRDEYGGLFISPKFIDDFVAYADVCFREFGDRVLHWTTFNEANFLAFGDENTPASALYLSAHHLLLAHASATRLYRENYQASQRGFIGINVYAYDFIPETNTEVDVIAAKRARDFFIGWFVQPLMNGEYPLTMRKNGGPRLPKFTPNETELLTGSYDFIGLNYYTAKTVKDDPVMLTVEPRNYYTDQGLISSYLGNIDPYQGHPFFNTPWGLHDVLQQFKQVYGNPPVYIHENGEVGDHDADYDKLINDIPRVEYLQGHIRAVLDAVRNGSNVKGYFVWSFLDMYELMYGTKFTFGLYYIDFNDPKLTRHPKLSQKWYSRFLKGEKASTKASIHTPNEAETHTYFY
Protocol: An enzyme reaction was carried out at 30° C. for 15 minutes in a reaction solution obtained by adding a citric acid buffer (pH 5.6) to a crude enzyme obtained from pink petals of a carnation (variety: “Beam Cherry”) (61 μg), cyanidin β-glucoside (200 μM), and a sugar donor (1-O-β-vanillyl glucose extracted from a carnation or any of synthesized 1-O-vanillyl glucose (in the α or β form), 1-O-isovanillyl glucose (in the α or β form), and 1-O-galloyl glucose (in the α or β form)) (500 μM) to a final volume of 30 μl. The reaction was terminated by adding a 20% phosphoric acid aqueous solution to the reaction liquid so as to result in a final phosphoric acid concentration of 1%, followed by centrifugation. The obtained supernatant was subjected to separation using an HPLC (Chromolith Speed ROD; 4.6×50 mm; Merck) with a linear gradient (5 minutes) of 18% to 28% liquid B containing eluent A (a 1.5% phosphoric acid aqueous solution) and eluent B (a 90% methanol aqueous solution) (flow rate: 3.0 ml/min; 520 nm), followed by analysis. The relative activity of the enzyme on each sugar donor was calculated based on the HPLC chromatogram area of a reaction product (cyanidin 3,5-O-β diglucoside) at a wavelength of 505 nm.

## O=C(OC1OC(CO)C(O)C(O)C1O)c1ccc(O)cc1 (stereo not drawn) [1-O-β-p-hydroxybenzoyl glucose]
[1]
  Recognition as sugar donor by delphinium glycosylation enzyme: recognize 1-O-β-p-hydroxybenzoyl glucose as a sugar donor

## COc1cc(C(=O)OC2OC(CO)C(O)C(O)C2O)ccc1O (stereo not drawn)
[2]
  Relative activity of an enzyme on a sugar donor (when synthetic 1-O-β-vanillyl glucose is set as 100): 100
[2]; listed as 1-O-β-vanillyl glucose (from carnation)
  Relative activity of an enzyme on a sugar donor (when synthetic 1-O-β-vanillyl glucose is set as 100): 97.9
